Results reported in patent US20080039522A1, “Composition Containing a Complex Comprising a Metal Ion and a Carboxylate Ligand Having Anti-Inflammatory Activity” (Medical Therapies Limited, priority 2004, published 2008).
Where “and” joins values, the source holds several entries; their conditions need not be identical. Identical values can stand only once.

Experiments:
Sprague-Dawley rats [1] = assay: Small intestine ulceration after oral administration; format: in vivo, rat; conditions: rats fed, oral gavage, 24 h after dosing, IndoH 10 mg kg^−1, complexes 11 mg kg^−1, mean ± sem
Description: The rats were orally administered (non-anaesthetized) the Test Samples or Test Compositions via oral gavage. The controls were dosed with CMC (2%) solution.
(§1) The total volume of the MCT or carbopol paste compositions administered per dose in the assessment of gastrointestinal ulceration was no more than 0.5 g.

Sprague-Dawley rats [2] = assay: Acute gastric ulceration after oral administration; format: in vivo, rat; conditions: for gastric ulceration: 10 mg kg^−1 dose of Indo
Description: Gastrointestinal Ulceration: To assess gastric damage, rats (n=4 per group) were fasted overnight with free access to water prior to the oral administration (non-anaesthetized) of the Test Samples or Test Compositions via oral gavage. The controls were dosed with CMC (2%) solution. Three hours after dosing, the rats were euthanised and the stomach was excised and opened by incision along the greater curvature. The stomach was rinsed, submerged in 10% formaldehyde for 1 h and examined to determine the extent of macroscopic gastric damage.
as §1
In order to illustrate the adverse effects of decomposition of the copper complex in the formulation, the gastric toxicity of IndoH, Cu-acetate, a physical mixture of Cu-acetate and IndoH and [Cu2(Indo)4(DMF)2] were tested at equivalent doses of Indo (10 mg kg^−1) and/or Cu in the MCT paste or a 2% (w/v) aqueous solution of carboxymethylcellulose (CMC). The MCT paste formulations were prepared as described in Example 3 but using IndoH, Cu-acetate, a physical mixture of Cu-acetate and IndoH, or [Cu2(Indo)4(DMF)2] instead of [Cu2(Indo)4(OH2)2]. The gastric toxicity was tested as described above. The results of these experiments are illustrated in FIG. 3.
In further experiments designed to test the toxicity of solutions of the Cu complex, the [Cu2(Indo)4(DMF)2] complex was dissolved in DMF and gastric toxicities were assessed. […] Similar results would be expected using other complexes, including [Cu2(Indo)4(OH2)2], in a non-colloidal solution.

Sprague-Dawley rats [3] = assay: Observation of the site of the subcutaneous injection; format: in vivo, rat; conditions: rat, in vivo, sc
Description: (§2) In Vivo Anti-inflammatory Activity and Gastric Toxicity. Groups of four rats were used for all studies. All doses were calculated as equivalent concentrations of Indo. […] For subcutaneous and intramuscular administration, rats were injected with 125-200 μL volumes of the test compositions (IndoH or [Cu2(Indo)4(OH2)2] in MCT oil). The control cohort was injected with equivalent volumes of neat MCT. Subcutaneous injections were made in the lower dorsal surface and intramuscular injections were made in the right hind thigh muscle. Inflammation was induced 1 h after dosing by injection of the formulation by an injection of carrageenan (0.1 mL, 1% w/v in isotonic saline) into the plantar region of the hind paw.

Sprague-Dawley rats [4] = assay: Anti-inflammatory activity (rat paw oedema) of topical creams; format: in vivo; conditions: topical emulsifying cream
Description: All rat experiments were performed as outlined in Example 7, except for the following changes. In Vivo Anti-inflammatory Activity and Gastric Toxicity. For topical administration, rats were treated with test compositions containing [Cu2(Indo)4(OH2)2] (“CuIndo”), [Zn(Indo)2(OH2)2] (“ZnIndo”), IndoH, or an equivalent Indo and Cu dose of a physical mixture of [Cu2(OAc)4(OH2)2] and IndoH thoroughly mixed in an emulsifying cream (see below). An amount of 0.2 g of the composition was applied to the right hind paw of each animal and gently massaged in for 1 minute at three-hourly intervals. Inflammation was induced at the final topical application with an injection of carrageenan (0.1 mL, 1% w/v in isotonic saline) into the plantar region of the hind paw. The composition for topical application was a composition comprising 0.5-2% w/w of Indo delivered as [Cu2(Indo)4(OH2)2] (“CuIndo”), [Zn(Indo)2(OH2)2] (“ZuIndo”), IndoH or an equivalent Indo and Cu dose of a physical mixture of [Cu2(OAc)4(OH2)2] and IndoH in an emulsifying cream, the emulsifying cream consisting of: […]

Sprague-Dawley rats [5] = assay: Gastric toxicity after subcutaneous or intramuscular injection; conditions: rat, in vivo, 4 h
Description: as §2
(§3) Paw volume was measured prior to dosing and at 3 h after carrageenan injection by immersing the left hind paw (to the lateral malleus) into a vessel filled with water as described in Example 5. Immediately after paw volume measurements, 24 h-fasted animals were euthanised and the stomach was excised and opened by incision along the greater curvature.

Sprague-Dawley rats [6] = assay: Small intestinal toxicity of topical creams; conditions: rat, in vivo
Description: In Vivo Small Intestinal Toxicity.
All rat experiments were performed as outlined in Example 7, except for the following changes.
In Vivo Anti-inflammatory Activity and Gastric Toxicity. For topical administration, rats were treated with test compositions containing [Cu2(Indo)4(OH2)2] (“CuIndo”), [Zn(Indo)2(OH2)2] (“ZnIndo”), IndoH, or an equivalent Indo and Cu dose of a physical mixture of [Cu2(OAc)4(OH2)2] and IndoH thoroughly mixed in an emulsifying cream (see below). An amount of 0.2 g of the composition was applied to the right hind paw of each animal and gently massaged in for 1 minute at three-hourly intervals. Inflammation was induced at the final topical application with an injection of carrageenan (0.1 mL, 1% w/v in isotonic saline) into the plantar region of the hind paw.

Sprague-Dawley rats [7] = assay: Inhibition of carrageenan-induced paw edema, oral administration; format: in vivo, rat; conditions: for percent inhibition in rat hind-paw diameter change, 3-hr / percent inhibition in rat hind-paw diameter change, 5-hr: oral, IndoH 10 mg kg^−1, complex 11 mg kg^−1, mean(sem); for percent inhibition in rat hind-paw diameter change, 3-hr: 3 h post carrageenan; for percent inhibition in rat hind-paw diameter change, 5-hr: 5 h post carrageenan
Description: Inhibition of Carrageenan-Induced Paw Edema: Rats were orally administered (non-anaesthetized) the Test Samples or Test Compositions via oral gavage. The control cohort was dosed solely with CMC (2%) solution. […] Exp. Ther. 1965, 150, 165-171). The thickness of the paw was measured at the ventral dorsal footpad using digital calipers prior to dosing and at 3 and 5 h after carrageenan injection. The change in the measured parameter (ΔP) for thickness of paw (Δmm) at n=3- and 5-hours after carrageenan injection is given by: ΔP=Pt=n-Pt=0 (I) The percent inhibition (% inhibition) at 3- or 5-hours in the measured parameter (P) due to the treatment is given as the difference between the % increase in the value of P in the control group and the treatment group at n=3- or 5-hours, with the % increase in the value of P given by: […]

Sprague-Dawley rats [8] = assay: Anti-inflammatory activity (rat paw oedema) after subcutaneous or intramuscular injection; format: in vivo
Description: as §2, §3

**Q.** `CN(C)C=O.CN(C)C=O.COc1ccc2c(c1)c(CC(=O)[O-])c(C)n2C(=O)c1ccc(Cl)cc1.COc1ccc2c(c1)c(CC(=O)[O-])c(C)n2C(=O)c1ccc(Cl)cc1.COc1ccc2c(c1)c(CC(=O)[O-])c(C)n2C(=O)c1ccc(Cl)cc1.COc1ccc2c(c1)c(CC(=O)[O-])c(C)n2C(=O)c1ccc(Cl)cc1.[Cu+2].[Cu+2]` [[Cu2(Indo)4(DMF)2], bis(N,N-dimethylformamide)tetrakis-μ-(O,O′-Indo)dicopper(II)] was tested. Which “Small intestine ulceration (mm^2)” value (Sprague-Dawley rats [1]; listed as Sample M) did it give?
**A.** The value was 8.7±2.9 mm^2.

**Q.** And the gastric ulceration (Sprague-Dawley rats [2]; complex dissolved in DMF alone)?
**A.** Its gastric ulceration is > 200 mm^2.

**Q.** What about the gastric ulceration (Sprague-Dawley rats [2]; complex in DMF containing 2% CMC) of the same compound?
**A.** The gastric ulceration was 100 mm^2.

**Q.** And the “gastric damage in 0.5 mL MCT paste compared with 0.5 mL of 2% (w/v) CMC solution” value (Sprague-Dawley rats [2]; oral, equivalent doses of Indo (10 mg kg^−1) and/or Cu, FIG. 3)?
**A.** Its value is “less GI toxicity for the MCT formulation compared to the CMC formulation”.

**Q.** And the “gastric ulcerations compared to the control” value (Sprague-Dawley rats [2]; oral, equivalent doses of Indo (10 mg kg^−1) and/or Cu, [Cu2(Indo)4(DMF)2] in MCT paste, Cu-acetate in CMC solution or MCT paste, FIG. 3)?
**A.** Its value is “no significant gastric ulcerations”.

**Q.** What about the “Gastric ulceration (mm^2)” value (Sprague-Dawley rats [2]; rats fasted overnight, oral gavage, 3 h after dosing, IndoH 10 mg kg^−1, complexes 11 mg kg^−1, mean ± sem, listed as Sample M) of the same compound?
**A.** The value was 49±7 mm^2 and 49.0±6.7 mm^2.

**Q.** `COc1ccc2c(c1)c(CC(=O)O)c(C)n2C(=O)c1ccc(Cl)cc1` [IndoH, 1-(4-chlorobenzoyl)-5-methoxy-2-methyl-1H-indole-3-acetic acid] was tested. Which “adverse effect at the site of the injection” value (Sprague-Dawley rats [3]) did it give?
**A.** Its value is “None of the rats exhibited soreness, swelling, redness or any other adverse effect”.

**Q.** What about the “Efficacy (% inhib)” value (Sprague-Dawley rats [4]; conc. 0.5 % equiv of Indo) of the same compound?
**A.** Its value is 18.6 % inhib.

**Q.** And the “Efficacy (% inhib)” value (Sprague-Dawley rats [4]; conc. 0.75 % equiv of Indo)?
**A.** Its value is 60.8 % inhib.

**Q.** And the “Efficacy (% inhib)” value (Sprague-Dawley rats [4]; conc. 1 % equiv of Indo)?
**A.** Its value is 35 % inhib.

**Q.** And the “Efficacy (% inhib)” value (Sprague-Dawley rats [4]; conc. 2 % equiv of Indo)?
**A.** Its value is 42 % inhib.

**Q.** And the “Gastric ulcers (mm^2)” value (Sprague-Dawley rats [5]; 5 mg/kg)?
**A.** The value was 1, 0, 1, 2 mm^2.

**Q.** What about the “Gastric ulcers (mm^2)” value (Sprague-Dawley rats [5]; 10 mg/kg) of the same compound?
**A.** Its value is 12, 3, 8, 20 mm^2.

**Q.** What about the intestinal bleeding (Sprague-Dawley rats [6]) of the same compound?
**A.** The intestinal bleeding was “^bOvert intestinal bleeding”.

**Q.** What about the ED50 (Sprague-Dawley rats [7]; delivered in CMC) of the same compound?
**A.** The ED50 was 2.8 ± 1.7 mg/kg.

**Q.** And the ED50 (Sprague-Dawley rats [7]; delivered in MCT paste)?
**A.** The ED50 was 1 mg/kg.

**Q.** What about the “percent inhibition in rat hind-paw diameter change, 3-hr” value (Sprague-Dawley rats [7]) of the same compound?
**A.** The value was 21(8) %.

**Q.** What about the “percent inhibition in rat hind-paw diameter change, 3-hr” value (Sprague-Dawley rats [7]; listed as Indomethacin) of the same compound?
**A.** Its value is 21(8)%.

**Q.** And the “percent inhibition in rat hind-paw diameter change, 5-hr” value (Sprague-Dawley rats [7])?
**A.** The value was 25(6) %.

**Q.** And the “percent inhibition in rat hind-paw diameter change, 5-hr” value (Sprague-Dawley rats [7]; listed as Indomethacin)?
**A.** Its value is 25(6)%.

**Q.** What about the Percent inhibition (Sprague-Dawley rats [8]; intramuscular, fasting rats, 5 mg/kg equivalent dose of Indo) of the same compound?
**A.** Its Percent inhibition is 38.7%.

**Q.** What about the Percent inhibition (Sprague-Dawley rats [8]; intramuscular, fasting rats, 10 mg/kg equivalent dose of Indo) of the same compound?
**A.** Its Percent inhibition is 49.4%.

**Q.** And the Percent inhibition (Sprague-Dawley rats [8]; subcutaneous, 7.5 mg/kg of Indo, non-fasting)?
**A.** The Percent inhibition was 34%.

**Q.** What about the “Small intestine ulceration (mm^2)” value (Sprague-Dawley rats [1]; listed as Sample I) of the same compound?
**A.** The value was 177.0±4.4 mm^2.

**Q.** For `COc1ccc2c(c1)c(CC(=O)[O-])c(C)n2C(=O)c1ccc(Cl)cc1.COc1ccc2c(c1)c(CC(=O)[O-])c(C)n2C(=O)c1ccc(Cl)cc1.O.O.[Zn+2]` [ZnIndo, [Zn(Indo)2(OH2)2]], which “Efficacy (% inhib)” value (Sprague-Dawley rats [4]; conc. 0.5 % equiv of Indo) is on record?
**A.** Its value is 29 % inhib.

**Q.** And the “Efficacy (% inhib)” value (Sprague-Dawley rats [4]; conc. 1 % equiv of Indo)?
**A.** Its value is 41 % inhib.
